# Laboratory results as given in patent US10603289B2, “Process for the manufacture of ajoene derivatives” (DANMARKS TEKNISKE UNIVERSITET, priority 2010, dated 2020).
# Columns and labels:
# P. aeruginosa PAO1 = assay type: in vivo; settings: day three post-infection; E:Z 1:4 (FIG. 8)
# Method: Mice were sacrificed on day one or day three post-infection and the contents of bacteria in the lungs were determined. Open squares indicate bacterial lung content per lung for each individual mouse. The median values are indicated with a filled black square. The statistic significance of difference in clearance was tested by a Mann-Whitney U test (analysis of nonparametric data) and p-values for the difference at day one and day three were 0.9 and 0.002 respectively.
# In this study ajoene was administered prophylactic and subsequently continued after infection. Injections were given subcutaneous in the peritoneum. We performed three individual in vivo treatment experiments with ajoene in the mouse model of pulmonary infection using the P. aeruginosa PAO1. BALB/c mice were intracheally challenged (at day 0) with alginate beads containing 1.5×10^8 CFU/ml P. aeruginosa. The two groups of mice were either untreated (placebo) or treated with ajoene 25 μg/g mouse once a day. The mice were given two days of prophylactic treatment or placebo prior to bacterial challenge. Treatment was continued for three days. […] When combining the experiments a significant difference on day three was seen (p<0.002) with a 500 fold difference in clearance between the groups (FIG. 7). This is concordant with the results obtained by Bjarnsholt et al (2005) in a similar lung infection model in with raw garlic extract was used as treatment [T. Bjarnsholt et al., Microbiology, 2005, 151, p. 3873-3880].
# This highlights that a synthesis providing a sufficiently pure “crude” ajoene product is essential in order to avoid the use of HPLC purification, as this step has a detrimental effect on biological activity. […] (E,Z) ajoene having an E:Z ratio of 1:4 was used.
# [1] = system: biofilms of P. aeruginosa PAO1; experiment: In vitro flow cell biofilm killing, live dead stains and CSLM; assay type: cell-based
# Method: Dead cells are stained with the DNA stain PI (Dark grey/black). The biofilm were visualized with CSLM. C) Implant model treated with ajoene and tobramycin.
# 3873-3880]. It was however unknown what was the active ingredient in the garlic extract. Thus. biofilms of P. aeruginosa strain were either grown in the presence or absence of 100 μg/ml ajoene. At day three the biofilms were treated with 10 μg/ml tobramycin for 24 hours. […] 10 μg/ml tobramycin was therefore chosen for the present study.
# wild-type P. aeruginosa = experiment: Foreign-body (silicone tube implant) infection model; assay type: in vivo, mice; settings: CFU per implant 72 hours after insertion
# Method: To examine the effect of a combination treatment with ajoene and tobramycin in vivo we used an foreign-body infection model [L. D. Christensen et al., Microbiology, 2007, 153, p. 2312-2320]. Silicone tube implants with a size of 4 mm (inner diameter 4 mm/outer diameter 6 mm) pre-colonized with wild-type P. aeruginosa, were inserted into the peritoneal cavity of mice. Treatments were injected subcutaneously every 24 hours, where ajoene and tobramycin treatment were initiated two days pre-insertion and 24 hours post-insertion, respectively. 72 hours after insertion the implants were removed from the mice and the number of colony-forming units per implant was determined. […] (E,Z) ajoene having an E:Z ratio of 1:4 was used.
Structure (SMILES),"clearing the pulmonary infection, by ajoene purity (P. aeruginosa PAO1)","extent of killing, comparison of tobramycin concentrations ([1]; prior treatment study, 10 μg/ml, 100 μg/ml or 340 μg/ml)","killing of the biofilm bacteria, single agent ([1]; tobramycin or ajoene only)","clearing of implants, single treatment versus placebo group (wild-type P. aeruginosa)"
C=CCSSC=CC[S+]([O-])CC=C (centres unmarked) [95-99.5% purity ajoene],effective at clearing the pulmonary infection,–,–,–
NC[C@H]1O[C@H](O[C@H]2[C@H](O)[C@@H](O[C@H]3O[C@H](CO)[C@@H](O)[C@H](N)[C@H]3O)[C@H](N)C[C@@H]2N)[C@H](N)C[C@@H]1O [tobramycin],–,no difference in the extent of killing,no or only minor killing,significant difference in clearing
C=CCSSC=CC[S+]([O-])CC=C (centres unmarked) [very high purity ajoene],not effective at clearing the pulmonary infection,–,–,–
